From patent publication US20200223839A1, “FLUORO-CONTAINING COMPOUNDS, USE AND PREPARATION THEREOF” (JIANGSU YINGKEBEITA YIYAOKEJI CO. LTD, priority 2017, published 2020)

Columns and labels:
Type in all cases: cell-based
MCF-7 = test: Cytotoxicity assay by the CTG method, MCF-7; conditions: Homo sapiens, MCF7, MCF-7, Breast cancer, 72 h
Procedure: (§1) The corresponding cells were harvested from flask into cell culture medium and the cell number were counted. The cells were diluted with culture medium to the desired density and 40 μL of cell suspension was added into each well of 384-well cell culture plate as designated. The plates were covered with lid and placed in room temperature for 30 minutes without shaking and then were transferred plates into 37° C. 5% CO2 incubator overnight for cell attachment.
(§2) Compound preparation and treatment: Test compounds were received or dissolved at 30 mM stock solution and control compound Staurosporine was stored as 10 mM and 1 mM concentration. 45 uL of stock solution was transferred to a 384 pp-plate. 3 fold, 10-point dilution were performed via transferring 15 uL compound into 30 μL DMSO by using TECAN (EVO200) liquid handler. The plates were spun at room temperature at 1,000 RPM for 1 minute and shaken at a plate shaker for 2 minutes. […]
(§3) The plate from incubators were placed and equilibrated at room temperature for 15 minutes. […] 40 μL of CellTiter-Glo reagent were transferred into each well to be detected (at 1:1 to culture medium). Then the plates were placed at room temperature for 30 min followed by reading on EnSpire.
(§4) The inhibition activity was calculated following the formula below: […]
(§5) The IC50 were calculated by fitting the Curve using Xlfit (v5.3.1.3): […]

HT29 = test: Cytotoxicity assay by the CTG method, HT29; conditions: Homo sapiens, HT-29, HT29, Colon cancer, 72 h
Procedure: as §1, §2, §3, §4, §5

HL-60 = test: Cytotoxicity assay by the CTG method, HL-60; conditions: Homo sapiens, HL-60, Leukemia, 72 h
Procedure: as §1, §2, §3, §4, §5

PLC/PRF/5 = test: Cytotoxicity assay by the CTG method, PLC/PRF/5; conditions: Homo sapiens, PLC/PRF/5, Liver cancer, 72 h
Procedure: as §1, §2, §3, §4, §5

U937 = test: Cytotoxicity assay by the CTG method, U937; conditions: Homo sapiens, U-937, U937, Lymphoma, 72 h
Procedure: as §1, §2, §3, §4, §5

OVCAR-3 = test: Cytotoxicity assay by the CTG method, OVCAR-3; conditions: Homo sapiens, OVCAR-3, Ovarian cancer, 72 h
Procedure: as §1, §2, §3, §4, §5

LNCaP = test: Cytotoxicity assay by the CTG method, LNCaP; conditions: Homo sapiens, Prostate cancer, 72 h
Procedure: as §1, §2, §3, §4, §5

`Cc1ccc(S(=O)(=O)Nc2nc3ccccc3nc2Nc2ccc3nsnc3c2)cc1F` [Compound 4f, N-[3-(benzo[1,2,5]thiadiazol-5-ylamino)-quinoxalin-2-yl]-3-fluoro-4-methyl-benzenesulfonamide] was tested, and the IC50 (MCF-7) was 5.19 µM, the IC50 (HT29) was 2.44 µM and the IC50 (HL-60) was 7.61 µM. The IC50 (PLC/PRF/5) was 3.27 µM, the IC50 (U937) was 3.68 µM and the IC50 (OVCAR-3) was 6.68 µM. The IC50 (LNCaP) was 3.2 µM.
